In patent US10577362B2, “Substituted 2, 4-diamino-quinoline derivatives for use in the treatment of proliferative diseases” (GENOSCIENCE PHARMA, priority 2016, dated 2020):

What was measured:
[1] = system: MOLM-14 (acute myeloid leukemia) cell line; assay: CellTiter-Glo luminescent cell viability assay, MOLM-14; type: cell-based, human; details: Homo sapiens; for viability at 4 µM: MOLM-14, compound at 4 μM; for viability at 4 µM / viability at 10 µM: 72 h; for viability at 10 µM: MOLM-14, compound at 10 μM; for EC50: MOLM-14 cell line, 72 h incubation, CellTiter-Glo, read-out: EC50, growth inhibition of MOLM-14
Summary of the method: (§1)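 Luminescent signal, normalised to diluent-treated cultures, defines % viability; EC50 is the concentration lowering it to 50%. Cells had been exposed to compound for 72 h at 37 °C in medium with 10% FBS, at a constant H2O or DMSO percentage.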

[2] = system: A375 (malignant melanoma) cell line; assay: CellTiter-Glo luminescent cell viability assay, A375; type: cell-based, human; details: Homo sapiens, A-375; for viability at 4 µM: A375, compound at 4 μM; for viability at 4 µM / viability at 10 µM: 72 h; for viability at 10 µM: A375, compound at 10 μM; for EC50: A375 cell line, 72 h incubation, CellTiter-Glo, read-out: EC50, growth inhibition of A375
Summary of the method: (§2)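 Adherent lines plated overnight, MOLM-14 (suspension) 1 h before dosing, in medium with 10% FBS at 37 °C, 5% CO2. Compounds added at varying concentrations for 72 h; CellTiter-Glo luminescence read, EC50 as dose reducing signal to 50% of diluent-treated cells, at least duplicate points.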

[3] = system: HCT-116 (colorectal carcinoma) cell line; assay: CellTiter-Glo luminescent cell viability assay, HCT-116; type: cell-based, human; details: Homo sapiens; for viability at 4 µM: HCT-116, compound at 4 μM; for viability at 4 µM / viability at 10 µM: 72 h; for viability at 10 µM: HCT-116, compound at 10 μM; for EC50: HCT-116 cell line, 72 h incubation, CellTiter-Glo, read-out: EC50, growth inhibition of HCT-116
Summary of the method: as §2

[4] = system: Huh7 (hepatocellular carcinoma) cell line; assay: CellTiter-Glo luminescent cell viability assay, Huh7; type: cell-based, human; details: Homo sapiens, Huh-7; for viability at 4 µM: Huh7, compound at 4 μM; for viability at 4 µM / viability at 10 µM: 72 h; for viability at 10 µM: Huh7, compound at 10 μM; for EC50: Huh7 cell line, 72 h incubation, CellTiter-Glo, read-out: EC50, growth inhibition of Huh7
Summary of the method: as §1

[5] = system: 786-O (renal adenocarcinoma) cell line; assay: CellTiter-Glo luminescent cell viability assay, 786-O; type: cell-based, human; details: Homo sapiens, 786-0; for EC50: 786-O cell line, 72 h incubation, CellTiter-Glo, read-out: EC50, growth inhibition of 786-O; for viability at 4 µM / viability at 10 µM: 786-O, 72 h; for viability at 4 µM: compound at 4 μM; for viability at 10 µM: compound at 10 μM
Summary of the method: as §2

[6] = system: HepG2 (hepatocellular carcinoma) cell line; assay: CellTiter-Glo luminescent cell viability assay, HepG2; type: cell-based, human; details: Homo sapiens; for viability at 4 µM / viability at 10 µM: HepG2, HepG, 72 h; for viability at 4 µM: compound at 4 μM; for viability at 10 µM: compound at 10 μM; for EC50: HepG2 cell line, 72 h incubation, CellTiter-Glo, read-out: EC50, growth inhibition of HepG2
Summary of the method: as §1

[7] = system: PANC-1 (prancreatic carcinoma) cell line; assay: CellTiter-Glo luminescent cell viability assay, PANC-1; type: cell-based; details: Homo sapiens; for viability at 4 µM: PANC-1, 4 μM; for viability at 4 µM / viability at 10 µM: 72 h, % of signal of diluent-treated cultures; for viability at 10 µM: PANC-1, 10 μM; for EC50: PANC-1 cell line, 72 h incubation, CellTiter-Glo, read-out: EC50 (growth inhibition assay of PANC-1 cell line)
Method: All cell lines were maintained in medium containing 1% penicillin-streptomycin (Dutscher, P06-07100) and 10% Fetal Bovine Serum (Hyclone Dutscher, RZK35922) cultured at 37° C. with 5% CO2. HepG2 (hepatocellular carcinoma), cell line was cultured in Dulbecco's modified Eagle's medium low glucose (Gibco, 21885025), Huh7 (hepatocellular carcinoma), HCT-116 (colorectal carcinoma), PANC-1 (prancreatic carcinoma) and A375 (malignant melanoma) cell lines were cultured in Dulbecco's modified Eagle's medium (Dutscher, L0103). MOLM-14 (acute myeloid leukemia) cell line was maintained in MEM alpha medium (Gibco, 22561-021). 786-0 (renal adenocarcinoma) cell lines were maintained in RPMI 1640 medium (Dutscher, L0498).
Cell viability was measured using the CellTiter-Glo® luminescent cell viability assay as described by the manufacturer (Promega, Ref G7571) using an Infinite F200Pro luminometer (Tecan). Briefly, for adherent cells, cells were plated onto 96-well plates (white with clear bottom) in 90 μL of media per well and were allowed to grow overnight before the assay. For cells growing in suspension, cells were plated onto 96-well plates 1 h before the assay.
Compounds were resuspended in H2O or DMSO and added at different concentrations to each well, and cell cultures were incubated for 72 h. Each diluent (H2O or DMSO) were used as a control, and all compounds were tested in a constant percentage of H2O or DMSO. On the day of the reading, plates are equilibrated 30 min at room temperature before the addition of 100 μL of CellTiter-Glo® and luminescence was measured using an Infinite F200Pro (Tecan). % cell viability were expressed as a percentage of the signal obtained for cell cultures treated with diluent. EC50 values were determined as the dose of compound required to reduce luminescent values to 50% of the signal obtained for cell cultures treated with diluent. The experimental data were analyzed using a computer program, Graphpad Prism v5 (GraphPad Software, Inc. La Jolla, Calif.). All points were at least done in duplicate.

EC50 [1] [µM] | EC50 [2] [µM] | EC50 [3] [µM] | EC50 [4] [µM] | EC50 [5] [µM] | EC50 [6] [µM] | SMILES | viability at 4 µM [1] [%] | viability at 10 µM [1] [%] | viability at 4 µM [2] [%] | viability at 10 µM [2] [%] | viability at 4 µM [3] [%] | viability at 10 µM [3] [%] | viability at 4 µM [4] [%] | viability at 10 µM [4] [%] | viability at 4 µM [5] [%] | viability at 10 µM [5] [%] | viability at 4 µM [6] [%] | viability at 10 µM [6] [%] | viability at 4 µM [7] [%] | viability at 10 µM [7] [%] | other results
5 to 10 | 0.5 to 5 | 0.5 to 5 | 5 to 10 | 5 to 10 | 0.5 to 5 | CC(C)NC1CCCN(c2c(C#N)c(NCc3ccc(Cl)cc3)nc3ccccc23)C1 (stereo not shown) [Compound 3160CN, 2-(4-chlorobenzylamino)-3-cyano-4-[3-(isopropylamino)piperidin-1-yl]quinoline] | 88.7 | 0.6 | 18.2 | 0.4 | 57.7 | 0.4 | 80.8 | 0.5 | 65.2 | 0.5 | 62.1 | 0.5 | 96.1 | 1.2 | EC50 [7]: 5 to 10 µM
– | – | – | – | – | – | Cc1nnc(Nc2nc3ccccc3c(N3CCC(NC(C)(C)C)CC3)c2C#N)o1 [Compound 3272CN, 2-[(5-methyl-1,3,4-oxadiazol-2-yl)amino]-3-cyano-4-[4-(tert-butylamino)piperidin-1-yl]quinoline] | 82.3 | 20.7 | 62.3 | 21.2 | 13.9 | 5 | 92.6 | 67.2 | 79 | 48.9 | 97.7 | 61.2 | 84.7 | 65.3 | –
– | – | – | – | – | – | N#Cc1c(NCc2ccc(Cl)cc2)nc2ccccc2c1N1CCC(NC2CCCC2)C1 (stereo not shown) [Compound 134CN, 2-(4-chloro-benzylamino)-3-cyano-4-[3-(cyclopentyl-amino)pyrroli-din-1-yl]quinoline] | 100 | 89.5 | 79.9 | 29.1 | 88.5 | 50.6 | 85.3 | 70.5 | 92.8 | 64 | 101 | 81.3 | 99.4 | 91.7 | –
0.5 to 5 | 0.5 to 5 | 0.5 to 5 | 0.5 to 5 | 0.5 to 5 | 0.5 to 5 | Cc1ccc(CNc2nc3ccccc3c(N3CCC(NC(C)(C)C)CC3)c2C#N)cc1 [Compound 3288CN, 2-(4-methylbenzylamino)-3-cyano-4-[4-(tert-butylamino)piperidin-1-yl]quinoline] | 62.8 | 0.4 | 0.5 | 0.3 | 0.5 | 0.2 | 0.6 | 0.3 | 1.9 | 0.3 | 0.6 | 0.3 | 63.5 | 0.6 | EC50 [7]: 5 to 10 µM
5 to 10 | 5 to 10 | 5 to 10 | 5 to 10 | 5 to 10 | 5 to 10 | N#Cc1c(NCc2ccc(Cl)cc2)nc2ccccc2c1N1CCC(N)C1 (stereo not shown) [Compound 3190CN, 2-(4-chloro-benzylamino)-3-cyano-4-[3-amino-pyrrolidin-1-yl]quinoline] | 78.1 | 2.1 | 87.3 | 0.8 | 75.2 | 0.4 | 92.7 | 1.3 | 90.6 | 1.6 | 95.5 | 16 | 93.7 | 56.1 | –
0.5 to 5 | 0.5 to 5 | 0.5 to 5 | 0.5 to 5 | 0.5 to 5 | 0.5 to 5 | CN1CCN(C2CCN(c3c(C#N)c(NCc4ccc(Cl)cc4)nc4ccccc34)CC2)CC1 [Compound 3188CN, 2-(4-chlorobenzylamino)-3-cyano-4-[4-(4-methylpiperazin-1-yl)piperidin-1-yl]quinoline] | 108 | 0.7 | 52.8 | 0.4 | 42.9 | 0.5 | 85.2 | 0.6 | 64 | 0.5 | 82.7 | 0.6 | 91.6 | 3.5 | EC50 [7]: 5 to 10 µM
5 to 10 | 0.5 to 5 | 5 to 10 | 5 to 10 | 5 to 10 | 5 to 10 | CC(C)(C)NC1CCN(c2c(C#N)c(NCc3ccccc3)nc3ccccc23)CC1 [Compound 3286CN, 2-(benzylamino)-3-cyano-4-[4-(tert-butylamino)piperidin-1-yl]quinoline] | 90.4 | 60.5 | 54.5 | 0.2 | 7.6 | 0.1 | 75.4 | 0.4 | 73.5 | 2.4 | 85 | 0.4 | 101 | 54.8 | EC50 [7]: 5 to 10 µM
– | – | – | – | – | – | CN(C)C1CCN(c2c(C#N)c(NCc3ccc(Cl)cc3)nc3ccccc23)C1 (stereo not shown) [Compound 3202CN, 2-(4-chloro-benzylamino)-3-cyano-4-[3-(dimethylamino)pyrrolidin-1-yl]quinoline] | 98.7 | 82.6 | 84.5 | 70.5 | 93.7 | 62.4 | 91.1 | 61.5 | 92.9 | 74.7 | 104 | 81 | 96.1 | 81.5 | –
– | – | – | – | – | – | CC(C)(C)OC(=O)NC1CCCN(c2c(C#N)c(NCc3ccc(Cl)cc3)nc3ccccc23)C1 (stereo not shown) [Compound 154CN] | 112 | 113 | 96.2 | 88.5 | 98.8 | 87.2 | 101 | 93.5 | 94.1 | 82.3 | 105 | 97.5 | 107 | 99 | –
